Tests used:
Human monocytes = test: Chemotaxis assay (monocyte migration in agarose plates); type: cell-based; parameters: key: (cells migrating to attractant − cells migrating to buffer)/10
Source text: Briefly, monocyte migration is directly observed in a chemotaxis chamber.
A comparative study comparing the chemotactic activity of the peptides of the invention with the chemotactic activity of peptide T (C. B. Pert et al., Proc. Natl. Acad. Sci., Vol. 83, pp. 9254-9258, 1986) was undertaken. […] Human monocytes were obtained by the known technique of layering heparinized blood on FICOLL-HYPAQUE differential dentrifugation medium in a centrifuge tube and spinning to separate the red blood cells from plasma and the monolayered monocytes. The monocytes were pipetted off and then washed with physiological saline.
The agarose plates were also prepared in accordance with conventional methods. Agarose type II (0.4 g), available from Sigma Chemical, and LITEX gelatin (0.3 g) were combined and heated until the gelatin was thoroughly dissolved. RMPI-HANK buffer (4 ml), distilled water (15.2 ml) and saturated NaHCO3 solution (0.8 ml) were then added to the agarose gelatin and mixed to homogeneity. 5 ml aliquots of the resulting solution were poured into plastic petri dishes (FALCON 55 mm) and allowed to gel. After the agarose has sufficiently hardened, wells, 3 mm in diameter were cut in the agarose, such that each dish had six rows of wells radiating from the center of the dish, each row containing three wells spaced apart by a distance of 3 mm. Thus, each plate was used to assay two test samples in triplicate. 8 ul of the test peptide (in 120 mM HEPES buffer) was placed on the outermost well, 8 ul of monocyte cell solution was placed in the center well and 8 ul of RPMI-HANKS buffer was placed in the innermost well. The migration of monocytes was visually observed and the number of migrating cells was determined. A chemotactic index was calculated as the number of cells which migrated toward the attractant, i.e., test peptide or control, less the number of cells that migrated towards the buffer divided by 10. Formyl-Met-Leu-Phe (FMLP) and (D-Ala)Peptide-T were used as positive control and HEPES buffer and Leu-Gly-Gly were used as negative controls.

[1] = system: binding of HIV to T4 cells; settings: reported by Pert et al., PNAS 1986; cited from earlier work
[2] = attractant concentration 10^-9 M
[3] = attractant concentration 10^-10 M
[4] = attractant concentration 10^-11 M

With “ALA--SER--SER--SER--ASN--TYR--MET (ASSSNYM; printed: ALA--SER--SER--SER--ASN--TYR--MET) [Example 6, linear heptapeptide]” as the substance, how does the “Chemotactic Index” value (Human monocytes; [2]) read?
Its value is 4.9.

And the “Chemotactic Index” value (Human monocytes; [3])?
The value was 4.7.

And the “Chemotactic Index” value (Human monocytes; [4])?
The value was 5.1.

For “Ala-Ser-Thr-Thr-Thr-Asn-Tyr-Thr [peptide T]”, which “Blocking of the binding of HIV to T4 cells (in words)” value [1] is on record?
The value was “block the binding of HIV to T4 cells”.

For “H-SER-SER-ASN-TYR-MET (SSNYM; printed: SER-SER-ASN-TYR-MET) [Example 8, linear pentapeptide]”, which “Chemotactic Index” value (Human monocytes; [2]) is on record?
Its value is 5.0.

And the “Chemotactic Index” value (Human monocytes; [3])?
Its value is 4.8.

And the “Chemotactic Index” value (Human monocytes; [4])?
Its value is 6.0.

What does the source list for “SER--SER--SER--ASN--TYR--MET (SSSNYM; printed: SER--SER--SER--ASN--TYR--MET) [Example 7, linear hexapeptide]”?
Chemotactic Index (Human monocytes; [2]): 4.6; Chemotactic Index (Human monocytes; [3]): 5.1; Chemotactic Index (Human monocytes; [4]): 5.3
